Measured values from US9732076B2, “Solid oral dosage formulation of HCV inhibitor in the amorphous state” (Boehringer Ingelheim International GmbH, priority 2013, dated 2017).

Assay: Ames test / genotoxicity of degradation product

SMILES: C=C[C@@H]1C[C@]1(N)C(=O)O [Compound X]
- Ames result / genotoxicity: Ames positive
